Consider one molecule from patent US10617662B2, “Autophagy activation-induced compound for improving skin inflammation for aging” (INCOSPHARM CORPORATION, priority 2017, dated 2020).

Data set [1] relates to ULK-1 (Serine/threonine-protein kinase-1). In words: Western blot for ULK-1 protein. The data set is classed as cell-based, human. Conditions: HaCaT cells; 20 uM dilution, 1 ml added to 1 ml medium; FIG. 1. How it is done:
In order to analyze which gene expression is related to increased autophagy activation by Compound 8 of the present invention, a western blot analysis for Beclin-1 and ULK-1 (Serine/threonine-protein kinase-1) proteins which are closely related to autophagy activation was performed.
As a specific experimental method, HaCaT cells, human-derived keratinocytes were seeded on a 60Ø dish at a density of 3×10^5 cells, and cultured in DMEM (Dulbecco's Modified Eagle Media, Gibco BRL) in an incubator under 37° C. and 5% CO2 for 24 hours. Compound 8 of the present invention was dissolved in DMSO at a concentration of 10 mM each to be a concentrate, and diluted with a medium to be at a concentration of 20 uM. Then in a state where 1 ml of medium was first in each well, 1 ml of each diluted solution was added thereto for treatment, and cultured for a certain period, and after completing the culturing, the medium was removed, and then cells were disrupted with a SDS sample buffer, and each protein was separated by SDS-PAGE gel electrophoresis, and transferred to a PVDF membrane. […]

Data set [2] has as its system IL-36γ (interleukin 36, gamma). In words: Cytokine gene expression, IL-36γ, IL-17A/TNF-α condition. The settings on record: FIG. 9. The data set is classed as cell-based, human.
Data set [3] has as its system CCL20 (Chemokine (C-C motif) ligand 20). In words: Cytokine gene expression, CCL20, IL-17A/TNF-α condition. Conditions: FIG. 9. The class given is cell-based, human.
A further data set has as its system IL-8 (interleukin-8). In words: Cytokine gene expression, IL-8, IL-17A/TNF-α condition. The class given is cell-based, human. Conditions: FIG. 9.
For the next data set, the system named is IL-24 (interleukin-24). In words: Cytokine gene expression, IL-24, TNFα/IFN-γ induced inflammatory condition. The class given is cell-based, human. Conditions: FIG. 8.
The test system of data set [4] is LC3 (light chain 3) protein. In words: Western blot for LC3 protein, autophagy activation. The data set is classed as cell-based, human. The settings on record: HaCaT cells; 20 uM dilution, 1 ml added to 1 ml medium; FIG. 1. How it is done:
In order to analyze increased intracellular autophagy activation by treatment of Compound 8 of the present invention, a western blot analysis for LC3 (light chain 3) protein was performed.
As a specific experimental method, HaCaT, human epidermal keratinocytes were seeded in on a 6 well plate at a density of 3×10^5 cells, and cultured in DMEM (Dulbecco's Modified Eagle Media, Gibco BRL) in an incubator under 37° C. and 5% CO2 for 24 hours. Compound 8 of the present invention was dissolved in DMSO at a concentration of 10 mM to be a concentrate, and diluted with a medium to be at a concentration of 20 uM. Then in a state where 1 ml of medium was first in each well, 1 ml of each diluted solution was added thereto for treatment, and cultured for a certain period, and after completing the culture, the medium was removed, and then cells were disrupted with a SDS sample buffer, and each protein was separated by SDS-PAGE gel electrophoresis, and transferred to a PVDF (polyvinylidene fluoride) membrane. Thereafter, non-specific binding was eliminated using a blocking buffer, and an antibody against LC3 protein and a HRP-bound secondary antibody (anti-rabbit IgG HRP (sigma)) were reacted, and then an enhanced chemiluminescence (ECL) reaction using an ECL prime kit (Amersham Pharmacia) was carried out, thereby performing a ChemiDoc analysis.
A general note: A western blot detects proteins with antibodies after separation by electrophoresis.

Data set [5] concerns psoriasis animal model induced by imiquimod 5% cream. Nature of the data set: Psoriasis animal model, ear thickness. The class given is in vivo, BALB/c mice. The settings on record: ears treated together with imiquimod; digital caliper; FIG. 18. Here is the method: (§1) In order to confirm the psoriasis treatment effect by Compound 8 of the present invention, dorsal hair of 8-week-old BALB/c mice (female) was removed using hair removal cream (Veet®, Oxy Reckitt Benckiser, Cedex, France), and subsequently imiquimod 5% cream (Aldara®; 3M Pharmaceuticals, UK; 62.5 mg) was applied on the back and both ears of the mice twice in the morning and in the afternoon (Sensitization; Day 0). Then, after a barrier recovery period of 2 days, imiquimod 5% cream (62.5 mg/day) was applied repeatedly for 7 days (Induction stage; Day 2 -Day 8), thereby inducing the psoriasis animal model.
There was no treatment on the left ear of the untreated control group, and the right ear was treated with cream not containing imiquimod and ethanol. The left ear of the experimental groups was treated only with imiquimod and ethanol, whereas the right ear of the experimental groups was treated with either Compound 8 or Compound 8 cream of the present invention together with imiquimod, and such method is specifically shown in FIG. 12.
When the animals were slaughtered, the thickness of the central part of both ears was measured using a digital caliper (Digital caliper, Marathon Inc. Belleville, ON, Canada).

The test system is the same in data set [6]. Nature of the data set: Psoriasis animal model, transepidermal water loss (TEWL). Conditions: increased by 5% imiquimod; applied for 5 days, 0.5% in ethanol or 0.5% cream; FIG. 17. The class given is in vivo, BALB/c mice. How it is done: as §1
After inducing the psoriasis animal model, Compound 8 of the present invention dissolved in ethanol (0.5%) and cream containing Compound 8 of the present invention (The same composition as that of the cosmetic composition of Example 14 except that it contained 0.5% by weight of Compound 8) were applied on the back once in the morning for 5 days (Treatment Stage; Day 8-Day 12). An untreated control group and a disease control group (vehicle) were treated with cream not containing Compound 8 of the present invention (cosmetic composition of Comparative Example 2) and ethanol, and during the treatment period, imiquimod 5% cream was applied thereon every other day, thereby maintaining psoriasis. […]

Data set [7] can be described thus: Psoriasis animal model, weight change. The class given is in vivo, BALB/c mice. The settings on record: topical treatment, FIG. 16. Here is the method:
as §1
After inducing the psoriasis animal model, Compound 8 of the present invention dissolved in ethanol (0.5%) and cream containing Compound 8 of the present invention (The same composition as that of the cosmetic composition of Example 14 except that it contained 0.5% by weight of Compound 8) were applied on the back once in the morning for 5 days (Treatment Stage; Day 8-Day 12). An untreated control group and a disease control group (vehicle) were treated with cream not containing Compound 8 of the present invention (cosmetic composition of Comparative Example 2) and ethanol, and during the treatment period, imiquimod 5% cream was applied thereon every other day, thereby maintaining psoriasis.

`CCCCCCCCCCCCCCCC(=O)NCCCC[C@H](NC(=O)[C@H](CCCCN(CC(=O)O)CC(=O)O)N(CC(=O)O)CC(=O)O)C(=O)O` [Compound 8]: in data set [1], the “expression of ULK-1 protein” value is given as “significantly increased”. Further, the “expression level of IL-36γ” value in [2] is given as “reduced”. In data set [3], the “expression level of CCL20” value is “reduced”. Moreover, the “expression level of IL-8” value with IL-8 (interleukin-8) is reported as “reduced”. In the data set with IL-24 (interleukin-24), the “expression level of IL-24” value is “reduced”. Besides, the “production of LC3-II” value in [4] is listed as “increased”. Moreover, the “thickness of the right (treated) ear compared with the left ear treated with 5% imiquimod and ethanol” value in data set [5] was “significant thickness reduction”. The TEWL value result in [6] was “remarkably reduced”. Besides, in data set [7], the “weight change after treatment” value is recorded as “almost similar to those of the control group”.
